Among the test systems are UACC-257 melanoma; COLO 205 colon; DMS 114 small cell lung; DMS 273 small cell lung; HOP-18 NSCLC; DLD-1 colon; SK-OV-3 ovarian; SN12C renal; CCRF-CEM leukemia; HT29 colon; NCI-H460 lung; KM20L2 colon; M14 melanoma; DU-145 prostate; HS 578T breast.
Common to all, as to assay: NCI anticancer screen, dose series, 48 h

Each structure is given as a SMILES string.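 Test compounds were applied to cells in 96-well plates for 48 hours at 5 doses. TGI: concentration producing complete growth inhibition.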

Consider `O=S(=O)(O)c1cc(N=[N+]([O-])c2ccc(N=Nc3ccccc3)cc2S(=O)(=O)O)ccc1/C=C/c1ccc(N=[N+]([O-])c2ccc(N=Nc3ccccc3)cc2S(=O)(=O)O)cc1S(=O)(=O)O`, for which the TGI in the test with UACC-257 melanoma, in the test on COLO 205 colon, with DMS 114 small cell lung, in the test on DMS 273 small cell lung, in the test with HOP-18 NSCLC and in the test with DLD-1 colon was more than 100 µM in each case. Also, the TGI in the test with SK-OV-3 ovarian, with SN12C renal, with CCRF-CEM leukemia, in the test with HT29 colon and in the test with NCI-H460 lung was more than 100 µM throughout.
As for `O=[N+]([O-])c1ccc(Nc2cccc3c2[nH]c2c(-c4ccccc4)nccc23)c([N+](=O)[O-])c1`, the TGI in the test with UACC-257 melanoma, in the test on COLO 205 colon, with DMS 114 small cell lung, in the test on DMS 273 small cell lung, in the test with HOP-18 NSCLC and in the test with DLD-1 colon was more than 100 µM in each case. Moreover, the TGI in the test with SK-OV-3 ovarian, with SN12C renal, in the test on CCRF-CEM leukemia, in the test on KM20L2 colon, in the test with HT29 colon and in the test with NCI-H460 lung was more than 100 µM in each case.
As to `CC1=C(C(=O)NCc2ccccc2)C(c2ccco2)C(C(=O)NCc2ccccc2)=C(C)N1`, the TGI in the test with UACC-257 melanoma, in the test on COLO 205 colon, with DMS 114 small cell lung, with DMS 273 small cell lung, with HOP-18 NSCLC and in the test on DLD-1 colon was more than 100 µM each time. The TGI in the test on SK-OV-3 ovarian, in the test on M14 melanoma, in the test with SN12C renal, in the test with CCRF-CEM leukemia, in the test with KM20L2 colon and in the test on HT29 colon was more than 100 µM in each case. This molecule also yielded a TGI in the test on NCI-H460 lung of more than 100 µM.
`Nc1ncc2c(n1)-c1ccccc1OC2`: the TGI with UACC-257 melanoma, in the test on COLO 205 colon, in the test with DMS 114 small cell lung, in the test on DMS 273 small cell lung, with HOP-18 NSCLC and in the test with DLD-1 colon was more than 100 µM in each case. Moreover, the TGI in the test with SK-OV-3 ovarian, in the test on SN12C renal, in the test on CCRF-CEM leukemia, in the test with KM20L2 colon, with HT29 colon and in the test with NCI-H460 lung was more than 100 µM throughout.
Turning to `CSc1nc(-c2ccccc2)nc(=[N+]2CCOCC2)s1`, the TGI was 98.7 µM in the test with COLO 205 colon; more than 100 µM in the test with DMS 273 small cell lung; more than 100 µM in the test on HOP-18 NSCLC; more than 100 µM with DLD-1 colon; more than 100 µM in the test with SK-OV-3 ovarian; more than 100 µM in the test with M14 melanoma. The TGI was more than 100 µM in the test on SN12C renal; 62.6 µM with CCRF-CEM leukemia; more than 100 µM with KM20L2 colon; more than 100 µM in the test on HT29 colon; more than 100 µM in the test on NCI-H460 lung.
Turning to `Cc1ccc(S(=O)(=O)NC(=O)NC(CC(=O)O)C(=O)O)cc1` (centres undefined), the TGI with UACC-257 melanoma, in the test with COLO 205 colon, in the test with DU-145 prostate, in the test on SK-OV-3 ovarian, in the test with M14 melanoma and in the test on HS 578T breast was more than 100 µM each time. The TGI with SN12C renal, with CCRF-CEM leukemia, with HT29 colon and in the test on NCI-H460 lung was more than 100 µM in each case.
`Cc1cc(S(=O)(=O)Nc2n[nH]c(Nc3ccccc3)n2)c(SSc2cc(Cl)c(C)cc2S(=O)(=O)Nc2n[nH]c(Nc3ccccc3)n2)cc1Cl`: the TGI in the test with UACC-257 melanoma, in the test on COLO 205 colon, in the test with DU-145 prostate, in the test on SK-OV-3 ovarian, with M14 melanoma and with HS 578T breast was more than 100 µM in each case. Further, the TGI with SN12C renal, in the test on CCRF-CEM leukemia, with HT29 colon and in the test on NCI-H460 lung was more than 100 µM throughout.
Consider `CCc1n[nH]c(=O)[nH]1`, for which the TGI in the test with UACC-257 melanoma, with COLO 205 colon, in the test on DU-145 prostate, with SK-OV-3 ovarian, in the test with M14 melanoma and in the test with HS 578T breast was more than 100 µM each time. The TGI in the test with SN12C renal, in the test on CCRF-CEM leukemia, in the test with HT29 colon and in the test with NCI-H460 lung was more than 100 µM each time.

Values taken from PubChem BioAssay (NCI).
